# Assay results published in patent US7365099B2, “Animal body fat control” (Wisconsin Alumni Research Foundation, priority 2001, dated 2008).
# Experiments:
# [1] = system: lipoprotein lipase associated with 3T3-L1 adipocytes; assay: Heparin-releasable lipoprotein lipase (LPL) activity in 3T3-L1 adipocyte cultures; type: cell-based; conditions: for potency in reducing LPL (rank order, in words): FIG. 5B, 20–24 hours, all test compounds at 100 μM; for LPL activity (in words): CLA 100 μM, aspirin 100 μM
# Protocol: Using the same model, the effects on LPL of aspirin and NDGA, as compared to CLA, were tested. 3T3-L1 preadipocytes were cultured as described. […] Briefly, 3T3-L1 preadipocytes were grown to confluence at 37° C. in Dulbecco's Modified Eagle's Medium (DMEM) with 10% fetal bovine serum (FBS). At two days post-confluence (designated “day 0”) cell differentiation was induced with a mixture of methylisobutylxanthine (0.5 mM), dexamethasone (0.25 μM), and insulin (1 μg/ml) in DMEM containing 10% FBS. On “day 2” this medium was replaced with DMEM medium containing 10% FBS and insulin only. On “day 4” and thereafter the medium was DMEM plus 10% FBS only; this medium was subsequently replaced with fresh medium at 2 day intervals.
# First, aspirin was tested along with PGE2, which is the final product of cyclooxygenase. Cells were treated with testing compounds for 4 hours before harvesting at day 6 or 7 post differentiation. The concentration of CLA, aspirin, and PGE2 were 1×10^−4 M, 1×10^−4 M, and 1×10^−6 M respectively. […] All dishes (including control) contained the same concentration of albumin (1×10^−4 M) and ethanol (final concentration of 0.1%).
# Heparin-releasable lipoprotein lipase (LPL) activity (EC 3.1.1.34, 10 U heparin/ml media for 1 hr at 37° C.) was measured as described. Nilsson-Ehle, P. and M. C. […] Protein was determined using Bio-Rad DC Protein assay kit.
# In a next set of cell culture experiments, shown in FIG. 4, cells were treated with testing compounds for 20–24 hours at day 7 post differentiation. […] CLA was complexed with albumin, and aspirin and NDGA were dissolved in ethanol. All dishes including control contained the same concentration of albumin (1×10^−4 M) and ethanol (final concentration of 0.05%). Numbers are mean±S.E. (n=7–8, collected from 2 independent experiments).
# (§1) Cells were treated with other known lipoxygenase inhibitors. Cells were treated with testing compounds for 20–24 hours at day 6 or 7 post differentiation. Based on the ED50 of these inhibitors, various doses were first tested. In FIG. 5A, the concentration of SHA, CLA, ETYA, indomethacin, NDGA and AA861 were 1×10^−3 M, 1×10^−4 M, 1×10^−4 M, 1×10^−4 M, 1×10^−5 M and 1×10^−6 M, respectively. In FIG. 5B, the cells were treated with the test compounds at 1×10^−4 M. CLA was complexed with albumin and others were dissolved in ethanol. All dishes including control contained the same concentration of albumin (1×10^−4 M) and ethanol (final concentration of 0.1%). Numbers are mean±S.E. (in FIG. 5A, n=7–8, collected from 2 independent experiments, in FIG. 5B, n=11–12, collected from 3 independent experiments). […] Indomethacin blocks both cyclooxygenase and lipoxygenase, the two primary enzymes in the arachidonic acid metabolic cascade.
# 3T3-L1 adipocytes [2] = assay: Glycerol released from 3T3-L1 adipocytes; type: cell-based; conditions: treated 20–24 hours
# Protocol: (§2) Fat reduction by CLA is partly due to inhibition of lipoprotein lipase (LPL) in adipocytes, as has been previously shown using a 3T3-L1 adipocyte cell culture model. Using the same model, the effects on LPL of aspirin and NDGA, as compared to CLA, were tested. 3T3-L1 preadipocytes were cultured as described. Frost, S. C. and M. D. Lane, J. Biol. Chem. 260: 2646–2652(1985). Briefly, 3T3-L1 preadipocytes were grown to confluence at 37° C. in Dulbecco's Modified Eagle's Medium (DMEM) with 10% fetal bovine serum (FBS). At two days post-confluence (designated “day 0”) cell differentiation was induced with a mixture of methylisobutylxanthine (0.5 mM), dexamethasone (0.25 μM), and insulin (1 μg/ml) in DMEM containing 10% FBS. On “day 2” this medium was replaced with DMEM medium containing 10% FBS and insulin only. On “day 4” and thereafter the medium was DMEM plus 10% FBS only; this medium was subsequently replaced with fresh medium at 2 day intervals.
# as §1, with “cascade. […] When 100 μM of these were tested, the potency was AA861>NDGA>ETYA>Indomethacin>CLA. […]” for “cascade.”
# [3] = Food intake of mice on NDGA/CLA diets (Experiment 2); type: in vivo; conditions: male ICR mice; for food intake, Total / food intake, Week 1 / food intake, Week 4: mean±S.E., N=5–6
# Protocol: (§3) After a 5 day adaptation period, four-week-old weanling male ICR mice (Harlan Sprague-Dawley) were randomly separated into groups that were fed one of the treatment diets for 4 weeks. Mice were fed either a control diet (as in Experiment 1), or a diet supplemented with CLA (0.1%), NDGA (0.1% or 0.005%), or CLA (0.1%) with NDGA (0.1% or 0.005%). The lower level of NDGA was chosen based on the level used as an antioxidant in the food industry. Supplemental NDGA was added to diets at the expense of sugar. Diet was stored at −20° C. until use. Mice were housed individually in a windowless room with a 12-h light-dark cycle in strict accordance to guidelines established by the Research Animal Resources Center of University of Wisconsin-Madison. Diet and water, available ad libitum, were freshly provided three times per week.
# ICR mice [4] = assay: Body composition analysis of mice on NDGA/CLA diets (Experiment 2); type: in vivo; conditions: male ICR mice; for % Ash / ECW (empty carcass weight): mean±S.E., N=5–6; for body composition versus control (in words): 4 weeks
# Protocol: For body composition analyses, animals were sacrificed, gut contents were removed (to obtain empty carcass weight, “ECW”), and the carcasses frozen at −20° C. Frozen carcasses were chopped, and freeze dried to determine water content. Each dried carcass was ground to give a homogeneous sample before further analysis. Total nitrogen was analyzed by the Kjeldahl method. Helrich, K., Official Methods of Analysis, 15th ed.: 935–937(1990). Carcass fat content was measured by extraction with diethyl ether overnight using a Soxhlet apparatus. Total ash content was determined by incineration (500–600° C., overnight).
# as §3
# [5] = Body weights of mice on NDGA/CLA diets (Experiment 2, FIG. 2); type: in vivo; conditions: male ICR mice
# Protocol: as §3
# fat tissue = conditions: reported by Gowri et al. 2000; cited from earlier work
# ICR mice [6] = assay: Body composition analysis of mice on aspirin/CLA diets (Experiment 1); type: in vivo; conditions: female ICR mice, 4 weeks
# From the text: After a 5 day adaptation period, four-week-old weanling female ICR mice (Harlan Sprague-Dawley) were randomly separated into groups that were fed one of the treatment diets for 4 weeks. Mice were fed either a control diet, or a diet supplemented with aspirin alone (0.03%), 0.5% CLA alone, or CLA with additional aspirin (0.006% [“Asp1”] or 0.03% [“Asp2”]). The control diet was semi-purified TD94060 diet, 99% basal mix from Harlan Teklad, Madison, Wis. that contained (ingredient, g/kg): sucrose, 476; casein, “vitamin-free” test, 210; corn starch, 150; DL-methionine, 3; corn oil 55; cellulose, 50; mineral mix, AIN-76, 35; vitamin mix, AIV-76A, 10; calcium carbonate, 4; choline bitartrate, 2; and ethoxyquin, 0.1. The aspirin doses reflect an average human dose (0.03%) or a recommended dose for preventing cardiovascular disease (0.006%). Supplemental CLA was added to diets at the expense of corn oil. Diet was stored at −20° C. until use. […]
# For body composition analyses, animals were sacrificed, gut contents were removed (to obtain empty carcass weight, “ECW”), and the carcasses frozen at −20° C. […] Total nitrogen was analyzed by the Kjeldahl method. […] Carcass fat content was measured by extraction with diethyl ether overnight using a Soxhlet apparatus. Total ash content was determined by incineration (500–600° C., overnight).
# [7] = Body weights of mice on aspirin/CLA diets (Experiment 1, FIG. 1); type: in vivo; conditions: female ICR mice, 0.5% CLA and/or 0.03% aspirin
# From the text: After a 5 day adaptation period, four-week-old weanling female ICR mice (Harlan Sprague-Dawley) were randomly separated into groups that were fed one of the treatment diets for 4 weeks. Mice were fed either a control diet, or a diet supplemented with aspirin alone (0.03%), 0.5% CLA alone, or CLA with additional aspirin (0.006% [“Asp1”] or 0.03% [“Asp2”]). The control diet was semi-purified TD94060 diet, 99% basal mix from Harlan Teklad, Madison, Wis. that contained (ingredient, g/kg): sucrose, 476; casein, “vitamin-free” test, 210; corn starch, 150; DL-methionine, 3; corn oil 55; cellulose, 50; mineral mix, AIN-76, 35; vitamin mix, AIV-76A, 10; calcium carbonate, 4; choline bitartrate, 2; and ethoxyquin, 0.1. The aspirin doses reflect an average human dose (0.03%) or a recommended dose for preventing cardiovascular disease (0.006%). Supplemental CLA was added to diets at the expense of corn oil. Diet was stored at −20° C. until use. Mice were housed individually in a windowless room with a 12-h light-dark cycle in strict accordance to guidelines established by the Research Animal Resources Center of University of Wisconsin-Madison. Diet and water, available ad libitum, were freshly provided three times per week.
# 3T3-L1 adipocytes [8] = assay: Cellular triacylglyceride (TG) in 3T3-L1 adipocytes; type: cell-based; conditions: treated 20–24 hours
# Protocol: as §2
# Cells were treated with other known lipoxygenase inhibitors. Cells were treated with testing compounds for 20–24 hours at day 6 or 7 post differentiation. Based on the ED50 of these inhibitors, various doses were first tested. In FIG. 5A, the concentration of SHA, CLA, ETYA, indomethacin, NDGA and AA861 were 1×10^−3 M, 1×10^−4 M, 1×10^−4 M, 1×10^−4 M, 1×10^−5 M and 1×10^−6 M, respectively. […]
# [9] = 4 weeks diet with 0.005% NDGA, with or without 0.1% CLA
# [10] = 4 weeks diet with 0.1% CLA and/or 0.1% NDGA
# [11] = diet with 0.005% NDGA, with or without 0.1% CLA
# [12] = diet with 0.1% CLA and/or 0.1% NDGA
# [13] = 0.005% NDGA, with or without 0.1% CLA
# [14] = FIG. 4, treated 20–24 hours at day 7 post differentiation, NDGA 50 μM
# [15] = FIG. 3, treated 4 hours, day 6 or 7 post differentiation, PGE2 1 μM
molecule,measurement,setting,value
"CC1=C(C)C(=O)C(CCCCC#CCCCC#CCO)=C(C)C1=O [AA861, 2-[12-hydroxydodeca-5,10-diynyl]-3,5,6-trimethyl-p-benzoquinone]","potency in reducing LPL (rank order, in words)",[1],AA861>NDGA>ETYA>Indomethacin>CLA
same,glycerol released from the cell (in words),3T3-L1 adipocytes [2],reduced the glycerol release
"CCCCCC#CCC#CCC#CCC#CCCCC(=O)O [ETYA, 5,8,11,14-eicosatetraynoic acid]","potency in reducing LPL (rank order, in words)",[1],AA861>NDGA>ETYA>Indomethacin>CLA
"COc1ccc2c(c1)c(CC(=O)O)c(C)n2C(=O)c1ccc(Cl)cc1 [Indomethacin, indomethacin]","potency in reducing LPL (rank order, in words)",[1],AA861>NDGA>ETYA>Indomethacin>CLA
"CC(Cc1ccc(O)c(O)c1)C(C)Cc1ccc(O)c(O)c1 (stereo not drawn) [NDGA, nordihydroguaiaretic acid]","food intake, Total",[3]; [9],136.3 ± 1.3 g/mouse
same,"food intake, Total",[3]; [10],137.9 ± 1.9 g/mouse
same,"food intake, Week 1",[3]; [11],33.8 ± 0.6 g/mouse
same,"food intake, Week 4",[3]; [11],34.0 ± 0.4 g/mouse
same,"food intake, Week 1",[3]; [12],35.2 ± 0.7 g/mouse
same,"food intake, Week 4",[3]; [12],33.8 ± 1.0 g/mouse
same,% Ash,ICR mice [4]; [9],3.29 ± 0.12%
same,ECW (empty carcass weight),ICR mice [4]; [9],32.2 ± 0.6 g
same,% Ash,ICR mice [4]; [10],3.43 ± 0.09%
same,ECW (empty carcass weight),ICR mice [4]; [10],31.9 ± 1.3 g
same,body composition versus control (in words),ICR mice [4]; [13],no effect on body composition
same,body composition versus control (in words),ICR mice [4]; 0.1% CLA and/or 0.1% NDGA,reduced fat (p<0.209) and increased water and protein
same,body weights (in words),[5]; [13],no difference in body weights
same,body weights (in words),[5]; 0.1% CLA and/or 0.1% NDGA,no difference in body weights
same,LPL activity (in words),[1]; [14],significantly reduced LPL activity
same,"potency in reducing LPL (rank order, in words)",[1],AA861>NDGA>ETYA>Indomethacin>CLA
same,glycerol released from the cell (in words),3T3-L1 adipocytes [2],reduced the glycerol release
same,lipolysis in fat tissue (in words),fat tissue,reduce lipolysis
"CCCCC[C@H](O)/C=C/[C@H]1[C@H](O)CC(=O)[C@@H]1C/C=C\CCCC(=O)O [PGE2, Prostaglandin E2]",LPL activity (in words),[1]; [15],no effect on LPL
"CC(=O)Oc1ccccc1C(=O)O [aspirin, Acetylsalicylic acid]",effect of added aspirin on CLA's effects on body composition (in words),ICR mice [6]; 0.006% or 0.03% aspirin with 0.5% CLA,did not change any of CLA's effects
same,body composition versus control (in words),"ICR mice [6]; 0.5% CLA with or without aspirin, aspirin alone 0.03%",no effect on body composition
same,"body weights, weeks 0 through 3 (in words)",[7],no difference in body weights
same,LPL activity (in words),[1]; [15],no effect on LPL
same,LPL activity (in words),[1]; [14],no effect
Conjugated linoleic acid [CLA],"body weights, weeks 0 through 3 (in words)",[7],no difference in body weights
same,food intake compared to control (in words),"[3]; 0.1% CLA, with or without 0.1% NDGA",reduced food intake only at week 3
same,"food intake, Total",[3]; [10],136.6 ± 1.2 g/mouse
same,"food intake, Week 1",[3]; [12],34.5 ± 0.3 g/mouse
same,"food intake, Week 4",[3]; [12],32.4 ± 0.7 g/mouse
same,% Ash,ICR mice [4]; [10],3.49 ± 0.07%
same,ECW (empty carcass weight),ICR mice [4]; [10],32.0 ± 0.9 g
same,body composition versus control (in words),ICR mice [4]; 0.1% CLA and/or 0.1% NDGA,reduced fat (p<0.197) and increased water and protein
same,body weights (in words),[5]; 0.1% CLA and/or 0.1% NDGA,no difference in body weights
same,LPL activity (in words),[1]; [15],significantly decreased LPL activity
same,LPL activity (in words),[1]; [14],significantly reduced LPL activity
same,"potency in reducing LPL (rank order, in words)",[1],AA861>NDGA>ETYA>Indomethacin>CLA
same,amount of cellular triacylglyceride (TG) (in words),3T3-L1 adipocytes [8],reduced
same,glycerol released from the cell (in words),3T3-L1 adipocytes [2],increased the glycerol released
